Results from US12612424B2, “HPK1 inhibitors and uses thereof” (Regor Pharmaceuticals, Inc., priority 2019, dated 2026).

Test system: Human Pan T Cell (IL-2 release)
Assay: IL2 released by human pan T cell upon anti-CD3/anti-CD28 stimulation (ELISA)
Type: cell-based
Conditions: human pan T cells; for maximal fold induction / EC50 / EC (2-fold response): Homo sapiens, T-cell; for maximal fold induction / EC (2-fold response): 48 h; for maximal fold induction: response of IL-2 over DMSO control, anti-CD3/anti-CD28, 48 hours, ELISA, read-out: IL-2 Max Fold Response; for EC50: IL-2 response, calculated with GraphPad Prism
Summary of the method: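 Primary human pan-T cells, negatively isolated from PBMC, plated at 100,000 cells/well and stimulated with immobilized anti-CD3 plus soluble anti-CD28 in presence of test compound at varying concentrations. After 2 days, secreted IL-2 in supernatant quantified by ELISA.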

[1] = concentration of compound that gives 200% IL-2 response (2 folds) over DMSO control

SMILES	EC50 [µM]	maximal fold induction	EC2x (nM) [1]	EC (2-fold response) [1] [µM]
COc1cc2c(cc1Nc1ncc(Cl)c(N3CC(C(N)=O)c4ccccc43)n1)CN(C)CC2 (stereo not drawn) [Example 33, 1-(5-Chloro-2-((6-methoxy-2-methyl-1,2,3,4-tetrahydroisoquinolin-7-yl)amino)pyrimidin-4-yl)indoline-3-carboxamide]		< 2		
COc1nc2c(cc1Nc1ncc(Cl)c(N3CCc4ccccc43)n1)CN(C)CC2 [Example 19, N-(5-chloro-4-(indolin-1-yl)pyrimidin-2-yl)-2-methoxy-6-methyl-5,6,7,8-tetrahydro-1,6-naphthyridin-3-amine]	0.1 to 0.5	> 2		0.1 to 0.5
COc1cc2c(cc1Nc1ncc(Cl)c(N3CCc4cc(F)ccc43)n1)CN(C)CC2 [Example 20, N-(5-chloro-4-(5-fluoroindolin-1-yl)pyrimidin-2-yl)-6-methoxy-2-methyl-1,2,3,4-tetrahydroisoquinolin-7-amine]	0.1 to 0.5	> 2		0.1 to 0.5
COc1cc2c(cc1Nc1ncc(Cl)c(-n3cc(C(N)=O)c4ccccc43)n1)CN(C)CC2 [Example 34]		< 2		
COc1cc2c(cc1Nc1ncc(Cl)c(-n3cc(P(C)(C)=O)c4ccccc43)n1)CN(C)CC2 [Example 1, (1-(5-Chloro-2-((6-methoxy-2-methyl-1,2,3,4-tetrahydroisoquinolin-7-yl)amino)pyrimidin-4-yl)-1H-indol-3-yl)dimethylphosphine oxide]		< 2		
COc1cc2c(cc1Nc1ncc3ccn(-c4ccccc4)c3n1)CN(C)CC2 [Example 36, 6-methoxy-2-methyl-N-(7-phenyl-7H-pyrrolo[2,3-d]pyrimidin-2-yl)-1,2,3,4-tetrahydroisoquinolin-7-amine]		< 2		

Now from value to compound, other results behind:

EC50 [µM]	SMILES	maximal fold induction	EC2x (nM) [1]	EC (2-fold response) [1] [µM]
0.5 to 1	COc1cc2c(cc1Nc1ncc(Cl)c(-n3cc(C(=O)O)c4ccccc43)n1)CN(C)CC2 [Example 35]	> 2	+ (“+”, for greater than 1 μM)	
0.5 to 1	COc1cc2c(cc1Nc1ncc(Cl)c(-n3ncc4ccccc43)n1)CN(C)CC2 [Example 24, N-(5-Chloro-4-(1H-indazol-1-yl)pyrimidin-2-yl)-6-methoxy-2-methyl-1,2,3,4-tetrahydroisoquinolin-7-amine]	< 2		
0.5 to 1	COc1nc2c(cc1Nc1ncc(Cl)c(N3CCc4ncccc43)n1)CN(C)CC2 [Example 29, N-(5-Chloro-4-(2,3-dihydro-1H-pyrrolo[3,2-b]pyridin-1-yl)pyrimidin-2-yl)-2-methoxy-6-methyl-5,6,7,8-tetrahydro-1,6-naphthyridin-3-amine]	< 2		
0.5 to 1	COc1cc2c(cc1Nc1ncc(Cl)c(N3CC(C)(C)c4ccccc43)n1)CN(C)CC2 [Example 25, N-(5-Chloro-4-(3,3-dimethylindolin-1-yl)pyrimidin-2-yl)-6-methoxy-2-methyl-1,2,3,4-tetrahydroisoquinolin-7-amine]	> 2		0.1 to 0.5
0.1 to 0.5	COc1cc2c(cc1Nc1ncc(Cl)c(N3CCc4ccc(F)cc43)n1)CN(C)CC2 [Example 21, N-(5-chloro-4-(6-fluoroindolin-1-yl)pyrimidin-2-yl)-6-methoxy-2-methyl-1,2,3,4-tetrahydroisoquinolin-7-amine]	> 2		0.1 to 0.5
0.1 to 0.5	COc1cc2c(cc1Nc1ncc(Cl)c(N3CC(C(=O)O)c4ccccc43)n1)CN(C)CC2 (stereo not drawn) [Example 32, 1-(5-Chloro-2-((6-methoxy-2-methyl-1,2,3,4-tetrahydroisoquinolin-7-yl)amino)pyrimidin-4-yl)indoline-3-carboxylic acid]	> 2		0.1 to 0.5
0.1 to 0.5	COc1cc2c(cc1Nc1ncc(Cl)c(N3CCc4ccccc43)n1)CNCC2 [Example 23, N-(5-chloro-4-(indolin-1-yl)pyrimidin-2-yl)-6-methoxy-1,2,3,4-tetrahydroisoquinolin-7-amine]	< 2		
0.5 to 1	COc1cc2c(cc1Nc1ncc(Cl)c(N3CCc4ccccc43)n1)CN(C(C)C)CC2 [Example 22, N-(5-chloro-4-(indolin-1-yl)pyrimidin-2-yl)-2-isopropyl-6-methoxy-1,2,3,4-tetrahydroisoquinolin-7-amine]	> 2		0.1 to 0.5
0.1 to 0.5	COc1cc2c(cc1Nc1ncc3ccn(-c4ccccn4)c3n1)CN(C)CC2 [Example 37, 6-Methoxy-2-methyl-N-(7-(pyridin-2-yl)-7H-pyrrolo[2,3-d]pyrimidin-2-yl)-1,2,3,4-tetrahydroisoquinolin-7-amine]	< 2		
